Reference: patent US5011825A, “Peptides influencing diuresis and natriuresis, a process for their preparation, agents containing them, and their use” (Hoechst Aktiengesellschaft, priority 1986, dated 1991)
Where a SMILES comes first, the peptide text is derived from it. The star is where a group is joined. Cbz = O=C(OCc1ccccc1)*

System: rat
Assay: Diuretic, natriuretic and kaliuretic action, Experimental Design 1 (anesthetized rats, continuous NaCl infusion, i.v. bolus)
Format: in vivo
Conditions: dose 1 mg/kg rat i.v. bolus, collection period 90 min
Method: A. […]
Experimental Design 1: The rats were anesthetized with 0.1 ml of 10% strength thiobutabarbital sodium/100 g of body weight i.p. They received an NaCl infusion from 60 min before administration of the substance and continuing during the experiment (2.5 ml of a 0.9% strength NaCl solution .h^-1.0.1 kg^-1 body weight). The test substance was administered as an i.v. bolus in 0.5 ml of a 0.9% strength solution/100 g of body weight.

CC[C@H](C)[C@H](NC(=O)[C@H](CCCNC(=N)N)NC(=O)[C@H](Cc1c[nH]c2ccccc12)NC(=O)[C@@H](NC(=O)[C@H](CCCNC(=N)N)NC(=O)OCc1ccccc1)[C@@H](C)CC)C(=O)O [Z-Arg-Ile-Trp-Arg-Ile-OH] (Cbz-RIWRI-OH)
Urine (control 1.267): 1.64 mL/kg | K^+ (control 29.5): 37.1 µmol/kg | Na^+ (control 65.2): 208.6 µmol/kg
